From publication PMC8658773, “Two New Isoprenoid Flavonoids from Sophora flavescens with Antioxidant and Cytotoxic Activities” (Molecules, 2021)
Where two headings read alike, the source gives them in different places.

Key:
[1] = test system: HepG2, A549 and MCF7 cells; test: Cytotoxic activity (MTS assay), stated jointly for three cancer cell lines; assay type: cell-based; conditions: Homo sapiens, read-out: IC50 values against the three cancer cell lines (range)
Experimental: (§1) The tests were conducted according to our previous reports. The cells were grown in DMEM medium supplemented with 10% FBS, penicillin (100 U/mL), and streptomycin (100 μg/mL) in a 37 °C and 5% CO2 incubator. The cytotoxic activities were performed by the MTS assay. Briefly, 28 compounds were dissolved with DMSO. The cells were seeded at 1 × 10^5 cells/mL in 96-well plates (100 µL/well) and cultured for 18 h when the cells filled the bottom of the wells. Then the supernatant was discard, the compounds (10 μM, 100 µL/well) were added to the culture and incubated for 24 h before cell viability measurement. 10 µL MTS reagent (0.5 mg/mL) were added and further incubated for 4 h. Finally, absorbance was read using an automatic micro-plate reader (Molecular Devices, USA) at 490 nm to test the cell viabilities, and the results were presented as the percent of non-treated control for each concentration. Irinotecan was used as the positive control. All measurements were repeated in triplicate. Data were expressed as the mean ± SD.

MCF7 cells [2] = test: Cytotoxic activity (MTS assay), MCF7; assay type: cell-based, human; conditions: SD in brackets; for inhibition at 10 µM: Homo sapiens, MCF7, read-out: MCF-7 cell inhibitory activity (Table S6)
A549 cells [3] = test: Cytotoxic activity (MTS assay), A549; assay type: cell-based, human; conditions: SD in brackets; for inhibition at 10 µM: Homo sapiens, A549, read-out: A549 cell inhibitory activity (Table S5)
LO2 cells = test: Cytotoxic activity (MTS assay), LO2 normal cells; assay type: cell-based, human; conditions: for inhibition at 10 µM: Homo sapiens, L02, read-out: LO2 cell inhibitory activity (Table S7)
HepG2 cells [4] = test: Cytotoxic activity (MTS assay), HepG2; assay type: cell-based, human; conditions: SD in brackets; for inhibition at 10 µM: Homo sapiens, HepG2, 10 µM, read-out: HepG2 cell inhibitory activity (Table S4)
A549 cells [5] = test: Cytotoxic activity (MTS assay), A549; assay type: cell-based, human; conditions: for IC50: MTS
Experimental: as §1

MCF7 cells [6] = test: Cytotoxic activity (MTS assay), MCF7; assay type: cell-based, human; conditions: for inhibition at 10 µM / IC50: Homo sapiens, MCF7, 24 h; for inhibition at 10 µM: read-out: MCF7 inhibition rate; for IC50: MTS
Experimental: as §1

[7] = DPPH free radical scavenging assay; assay type: biochemical; conditions: 20 μg/mL; SD in brackets
Experimental: The in vitro antioxidant activity tests were conducted according to previous reports. Among them, the DPPH free radical scavenging assay was slightly modified. Briefly, the DPPH material was precisely weighed, ethanol solution was added to obtain a concentration of 0.1 mmol/L (to use immediately, or store in the dark). Then, the compounds (100 µL, 40 µg/mL) with DPPH solution (100 µL) (Ai) were added to 96-well plates and incubated for 30 min at room temperature. Subsequently, the activity was measured using the Thermo Scientific Varioskan LUX ([…], VL0L00D0, USA), with an absorbance of 570 nm. Vitamin C (VC) (40 µg/mL) was used as the positive control.

[8] = PTIO free radical scavenging assay; assay type: biochemical; conditions: 8 μg/mL; SD in brackets
Experimental: PTIO free radical scavenging was also performed following previous reports with some modification. VC was used as the positive control. PTIO radicals were dissolved with phosphate buffer (PBS) (pH 7.4, 50 mM) with a concentration of 0.05 mg/mL. Then, the samples (40 µL, 40 µg/mL) and PTIO solution (160 µL) were added into 96-well plates (as the value of Ai). After being thoroughly mixed, the reaction solution was incubated at 37 °C in a water-bath for 2 h. Then, the absorbance was measured at 557 nm. PTIO free radical scavenging was calculated using the above equation. (40 µL PBS with 160 µL PTIO as A0, 40 µL compounds with 160 µL PBS as Aj).

HepG2 cells [9] = test: Cytotoxic activity (MTS assay), HepG2; assay type: cell-based, human; conditions: for inhibition at 10 µM: HepG2, 24 h, read-out: HepG2 inhibition rate; for IC50: 24 h, MTS
Experimental: as §1

[10] = ABTS free radical scavenging assay; assay type: biochemical
Experimental: The third assay, the ABTS free radical scavenging screen was performed by previous experiments with slight changes. First, we needed to prepare for the ABTS^+ solution. […] Then, they were mixed with equal volume at room temperature and kept away from light for 12 h, the mixed solution was diluted with ethanol until the absorbance of […]. Thus, the ABTS^+ solution was obtained. Furthermore, the compounds (100 µL, 40 µg/mL) with ABTS^+ solution (100 µL) were also added to the 96-well plates (as the value of Ai) and were interacted for 10 min at room temperature in the dark, then the absorbance at 734 nm was measured. VC was used as the positive control. Antioxidant capacity was calculated according to the first formula (the value of 100 µL ethanol with 100 µL ABTS^+ solution as A0, the value of 100 µL compounds with 100 µL ethanol as Aj). All experiments were carried out in triplicate.

Row | ABTS radical scavenging IC50 [10] | Compound | inhibition at 10 µM (MCF7 cells [2]) | inhibition at 10 µM (A549 cells [3]) | inhibition at 10 µM (LO2 cells; SD in brackets) | inhibition at 10 µM (HepG2 cells [4]) | IC50 (A549 cells [5]; Homo sapiens, A549, 24 h) | inhibition at 10 µM (MCF7 cells [6]) | IC50 (MCF7 cells [6]) | DPPH radical scavenging activity (inhibition rate) [7] | PTIO radical scavenging activity (inhibition rate) [8] | inhibition at 10 µM (HepG2 cells [9]; Homo sapiens) | IC50 (HepG2 cells [9]; Homo sapiens, HepG2) | also measured
1 |  | C=C(C)C(CC=C(C)C)Cc1cc(OC)ccc1C1Oc2cc(O)cc(CC(CC=C(C)C)C(=C)C)c2C(=O)C1O (centres unmarked) [Compound 1, 7-hydroxy-5,1-bis (5-methyl-2-isopropyl-hexene) -flavanonol] | 85% | 58% | 29.4% | 84.1% | 10.6 µM | 85% | 7.5 µM | 40.0% (4.9%) | 37.3% (3.4%) | 84% | 9.6 µM | IC50 [1]: 7.5 to 10.6 µM; Cytotoxic effect on LO2 human normal cells (in words) (LO2 cells; compared with cancer cells): little effect; inhibition at 10 µM (A549 cells [5]; Homo sapiens, A549, 10 μM, 24 h, read-out: A549 inhibition rate): 58%
2 |  | CCc1c2c(nc3ccc(OC(=O)N4CCC(N5CCCCC5)CC4)cc13)-c1cc3c(c(=O)n1C2)COC(=O)[C@]3(O)CC [irinotecan, reference compound] |  |  |  |  | 1 µM |  | 0.9 µM |  |  |  | 0.6 µM | 
3 |  | kushenol A [Compound 13] |  |  |  |  |  |  |  | 25.6% (2.4%) | 35.6% (1.0%) |  |  | ABTS radical scavenging activity (inhibition rate) ([10]; 20 μg/mL, SD in brackets): 81.5% (1.9%); MCF-7 cell inhibitory activity (Table S6) (MCF7 cells [2]; 10 μg/mL): 11.5% (2.1%); A549 cell inhibitory activity (Table S5) (A549 cells [3]; 10 μg/mL): 17.6% (0.6%); LO2 cell inhibitory activity (Table S7) (LO2 cells; 10 μg/mL, SD in brackets): 26.8% (2.7%); HepG2 cell inhibitory activity (Table S4) (HepG2 cells [4]; 10 μg/mL): 97.5% (0.1%); Inhibition of A549 cells (in words) (A549 cells [5]): could hardly inhibit; Inhibition of MCF7 cells (in words) (MCF7 cells [6]): could hardly inhibit; IC50 (HepG2 cells [9]): 6.85 µM
4 | 2.05 µg/mL | C=C(C)[C@H](CCC(C)(C)O)Cc1c(O)cc(OC)c2c1O[C@H](c1ccc(O)cc1O)[C@@H](O)C2=O [Compound 3, kushenol H] | -4.5% | 11.3% | 15.5% | 1.9% |  | 4.5% |  | 53.5% (0.4%) |  | 1.9% |  | 
5 | 1.81 µg/mL | C=C(C)C(CC=C(C)C)Cc1c(O)c(OC)c2c(c1O)C(=O)C(O)C(c1ccc3c(c1)OCO3)O2 (centres unmarked) [Compound 2, 5,7-dihydroxy-8-methoxy-6-(5-methyl-2-iso-hexenyl)-3′,4′-methylene dioxy-flavanonol] | 10.3% | 17.2% | 27.9% | 19.9% |  | 10.3% |  | 42.3% (1.5%) | 41.0% (2.6%) | 19.9% |  | 
